From patent US9796674B2, “Benzyl urea derivatives for activating TGF-beta signaling” (THE BOARD OF TRUSTEES OF THE LELAND STANFORD JUNIOR …, priority 2013, dated 2017)
“Also recorded” adds a separate entry of the source.

How the values were obtained:
[1] = tested on: TGF-β signaling; assay: F11 SBE-SEAP reporter cell assay; format: cell-based, mouse; details: F11 SBE-SEAP reporter cell line
Excerpt: In another aspect, methods are provided for treating or preventing the progression of a disease or condition characterized by a reduction in TGF-β signaling. One category of such diseases or conditions is neurodegenerative disorders. One example is Alzheimer's disease (AD), or another disease characterized by the deposition of amyloid plaques and overall accumulation of Aβ in the brain. Experiments performed in support of the present compositions and methods are described, below. • TGF-β reporter gene and cells for screening compounds: An in vitro screening method was developed to identify small-molecule chemical compounds with TGF-β1-like bioactivity. The method utilized a fusion gene consisting of the luciferase or secreted alkaline phosphatase (SEAP) reporter gene under control of the TGF-β responsive Smad-binding element (SBE) minimal promoter sequence, as shown in FIGS. 1A and 1B. To screen for compounds that mimic TGF-β bioactivity, reporter cell lines were prepared by stably-integrating SBE-SEAP into C6 astrocytoma cells, a primary astrocyte line derived from tgfb1^−/− mice, a mouse embryonic fibroblast cell line derived from tgfb1^−/− mice (MFB-F11), and NG108-15 neuroblastoma cells. Such cell lines remained stable for at least 20 passages. Use of a tgfb1^−/− genetic background avoids interference by the […] tgfb1 gene. • Initial compound screening: A library with 5,000 chemically diverse small molecules (average Mr 200 Da) was obtained from Comgenex LLC (South San Francisco, Calif.). […]
The compounds were all tested in the F11 cell activity assay (fibroblast stably transfected with SBE-SEAP construct). […] Compounds with promising activity were evaluated using tier 1 assays such as permeability assays to measure blood-brain barrier transport, metabolic stability assays, and solubility assays. […]

[2] = tested on: TGF-β signaling; assay: Bioluminescence in SBE-luc reporter mice; format: in vivo, mouse; details: brain/CNS bioluminescence
Description: The most promising compounds out of these screens were tested for their neuroprotective potential in B103 rat neuroblastoma cells and primary mouse neurons derived from E16 forebrains. Compounds were also tested for their capacity to reduce varicosities and tortuosity in primary mouse neurons. Accordingly, novel neuroprotectant small molecules have been identified that are as potent or better than TGF-β. Importantly, they fulfilled the critical neuroprotective properties in neuronal cell lines and primary hippocampal mouse neurons. • Compounds based on the 11H core: The present compositions and methods include salts of the active compounds and formulations, in particular pharmaceutically acceptable compositions for administration to an animal or human subject and containing active compounds. 129 analogs or derivatives of 11H were screened by a cell-based assay for their ability to increase TGF-β activity, i.e. to act as a TGF agonist. In particular, one compound (a) designated as SRI-011381 (381) was identified as especially advantageous, although active derivatives thereof are contemplated and have been identified. • Effects of TGF-β analogs in vitro: Some of the small-molecule TGF-β agonist compounds were tested for neuroprotection activity and toxicity in vitro (cell culture). In addition, the mechanism of action of the agonists was explored using cells with different genetic backgrounds with respect to protein of the […] signaling pathway. • Animal studies: Transgenic mice harboring the SBE-luc reporter gene were generated and used to test the derivatives of compound 11H in vivo. These “reporter mice” mice express SBE-luc (i.e., “the transgene”) in all cells of the body. Intraperitoneal injection of luciferin into SBE-luc-expressing mice produces bioluminescence generated by luciferase and photons penetrating the skull can be imaged using sensitive camera systems.
SBE-luciferase transgenic mice: Two-month old SBE-luciferase transgenic mice receive different concentrations of a test compound either s.q., ip., or orally by gavage. […] Following administration of the test or control compounds, mice are injected with luciferin ip. At, for example, 2, 8, and 16 hours following injection of luciferin, the mice are imaged to detect bioluminescence as described above. Brains may be harvested 16 hours following test compound injection, and may be divided sagittally. For example, one hemi-brain can be homogenized in luciferase assay buffer for measurement of reporter gene activation, while the other hemi-brain can be frozen at −70° C. for future study, including sectioning into individual brain regions

[3] = Metabolic stability in human liver microsomes; format: in vitro ADME
Description: Metabolic Stability: SRI-011381 (1 and 10 μM) was incubated with human liver microsomes (pooled from several donors) and cofactors.

[4] = tested on: female FVB mice; assay: Dose escalation and 14-day MTD study in female FVB mice; format: in vivo; details: for hematology parameters / survival: repeat dose study; for clinical chemistry: all treatment groups; for single-dose level at which all animals survived to 48 h: female, FVB, mouse, in vivo; for survival: high dose 75 mg/kg
Description: In Vivo Range Finding Toxicity Studies in Mice and Rats: Dose escalation and 14-day MTD study of SRI-011381 and SRI-011382 in female FVB mice: The objectives of this study were to determine the maximum tolerated dose (MTD) and a no observable adverse effect level (NOAEL) in female FVB mice following a daily oral dose administration for 14 consecutive days. An initial dose escalation was performed with intraperitoneal (ip), oral (po), and intravenous (iv) dose routes for a single-dose MTD of SRI-011381 and SRI-011382.
Subsequently, three dose levels (10, 30, and 75 mg/kg) and a vehicle control group were used in the 14-day oral dose administration to determine the MTD and NOAEL based on changes in bodyweight, clinical observations, serum chemistry, hematology and gross organ physiology in 5 female mice per treatment group.
The objectives of this study were to determine maximum tolerated dose (MTD) and a no observable adverse effect level (NOAEL) in female FVB mice following a daily oral dose administration for 14 consecutive days. After a dose escalation single dose study with doses up to 400 mg/kg, three dose levels were selected for the repeat dose study, 10, 30 and 75 mg/kg, administered […]. The MTD is the maximum dose administered that results in less than 10% body weight loss compared to controls and no other dose limiting adverse effects (e.g. clinical pathology).

Question: What does the source list for `O=C(NC1CCCCC1)N(Cc1ccccc1)CC1CCNCC1` [SRI-011381, 1-Benzyl-3-cyclohexyl-1-(piperidin-4-ylmethyl)urea]?
Answer: activity in the reporter cell assay [1]: showed activity; activity in the reporter cell assay ([1]; listed as 381): activates TGF-β signaling in reporter cell line; activation of TGF-β signaling in SBE-luc reporter mice [2]: penetrate into the CNS and activate TGF-β signaling; also recorded: bioavailable in the CNS and activate TGF-β signaling; also recorded: activates TGF-β signaling in the brain; activation of TGF-β signaling in SBE-luc reporter mice ([2]; listed as 381): activates TGF-β signaling in reporter mice; compound unchanged ([3]; 1 and 10 μM, after 60 min): Approximately 80%; hematology parameters ([4]; 10 mg/kg): no significant differences relative to controls; absolute WBCs ([4]; 30 mg/kg, 14 days): significantly decreased; hematology parameters ([4]; 30 mg/kg): minor changes in WBCs only; hematology parameters (RBCs, hematocrit, hemoglobin) ([4]; 75 mg/kg (high dose), 14 days): reductions in red blood cells (RBCs), hematocrit and hemoglobin; also recorded: RBCs, hematocrit and hemoglobin were all significantly reduced; also recorded: significantly reduced hematocrit, hemoglobin, RBCs, and WBCs; clinical signs ([4]; 75 mg/kg, 14 days): hunched posture, hypoactivity and ruffled fur; neutrophils (% and absolute) ([4]; 75 mg/kg, 14 days): increased; reticulocytes ([4]; 75 mg/kg, 14 days): significantly elevated; body weight or body weight change ([4]; 10, 30, 75 mg/kg, 14 days, relative to controls): no significant differences in body weight or body weight change; lymphocytes (% and absolute) ([4]; 30 and 75 mg/kg, 14 days): decreased; clinical chemistry ([4]; 14 days): no significant changes in clinical chemistry; single-dose level at which all animals survived to 48 h ([4]; ip): up to 100 mg/kg; single-dose level at which all animals survived to 48 h ([4]; iv): ≤ 15 mg/kg; single-dose level at which all animals survived to 48 h ([4]; po): ≤ 200 mg/kg; survival [4]: survived to the scheduled sacrifice on Day 15; clinical observations ([4]; two lower dose groups (10, 30 mg/kg), 14 days): appeared normal

Question: Which “activity in the reporter cell assay” value [1] does the source give for `O=C(NC1CCCCC1)N(C/C=C/c1ccc(F)cc1)CC1CCNCC1` [SRI-011382] here?
Answer: superior activity

Question: And the “activation of TGF-β signaling in SBE-luc reporter mice” value [2]?
Answer: bioavailable in the CNS and activate TGF-β signaling

Question: And the metabolic stability [3]?
Answer: desirable level of metabolic stability

Question: And the hematology parameters ([4]; 30 mg/kg)?
Answer: reduced hematocrit, hemoglobin, RBCs, and WBCs

Question: What about the clinical signs ([4]; 75 mg/kg, 14 days) of the same compound?
Answer: hunched posture, hypoactivity and ruffled fur

Question: And the clinical chemistry ([4]; 14 days)?
Answer: no significant changes

Question: And the survival [4]?
Answer: lethality to the entire treatment group
